Results taken from patent publication US10703770B2, “Compositions and methods for the dissolution and depolymerization of lignin” (National Technology & Engineering Solutions of Sandia, LLC, priority 2016, dated 2020).
Where “and” joins values, the source holds several entries; their conditions need not be identical. Equal values may be shown once. Entries after “also recorded” stand apart in the source; their conditions may differ.

Legend:
[1] = Solubilization of alkali lignin in solvents; details: 20 °C (room temperature), solvent 5 g
Excerpt: Alkali lignin (average molecular weight of lignin obtained from Sigma-Aldrich reported as 60.0 kDa) with low sulfonate content was used as a technical lignin substrate for the rapid solubilization experiments.
Confocal microscopy (10× magnification) was used to observe the morphologies of lignin before and after solubilization and precipitation, and the results are shown in FIGS. 8D-8F.

[2] = 25° C.; cited from earlier work
CTec2+HTec2 (9:1, v/v) = experiment: Tolerance of commercial enzyme cocktails to IL in saccharification; format: biochemical
Procedure: FIG. 4C. Effects of some parameters on the sugar yield: IL concentration in hydrolysis. Normal operation conditions: pretreatment, 10 wt % SG loading, 90 wt % IL, 160° C., 0.5 h (3 h for eucalyptus); saccharification, 10 wt % IL, 20 mg protein/g SG, 50 ° C., 72 h.
As a result, the associated IL recycling and wastewater treatment costs create significant economic and process engineering challenges for the commercial scale-up of this technology. In the present process, commercial cocktails of CTec2+HTec2 (9:1, v/v) could tolerant about 10 wt % IL in saccharification process (FIG. 4C). […] [OAc] is tolerant to commercial cocktails not only in pH match, but also in its low toxic nature.
Generally, SSF requires compatible fermentation and saccharification conditions, with a similar pH, temperature and optimum substrate concentration. In a case of IL participating SSF, a compromise IL concentration for the two stages is an accessional requirement. […] [OAc] concentration of 10 wt %, however, increasing the [EOA] […] Thus, it would be interesting to see the performance of the wild yeast under different IL concentrations.
One-pot pretreatment, saccharification and fermentation: In a typical procedure, SG (100 mg) was mixed with ([EOA][OAc]) at a 10% biomass loading in a 15 mL capped glass pressure tube and pretreated in a convection oven at 160° C. for 0.5 h. […]

[3] = reported (refs 24, 25); cited from earlier work
[4] = system: Saccharomyces cerevisiae strain BY4741; experiment: Toxicity test of [EOA][OAc] on yeast growth; format: cell-based
Procedure: FIG. 5A. Toxicity test of [EOA][OAc]. Conditions: yeast strain: Saccharomyces cerevisiae strain BY4741, growth condition: in 24-well microplate with orbital-high intensity shaking/31° C./in IL solution (10 g/L glucose in each IL solutions), volume of the cell culture was 0.5 mL.
For toxicity screening, a wild type yeast strain BY4741 was technically used and it was immersed in various IL concentrations from 2.5 to 15 wt %.

OCCO [EG, ethylene glycol]
Solubility (wt %) of alkali lignin [1]: > 30 wt % and ~31 wt % | viscosity [2]: 0.0162 N s/m^2

OCC(O)CO [Glycerol]
viscosity [2]: 0.95 N s/m^2

CC1COC(=O)O1 (stereo not drawn) [PC, propylene carbonate, reference compound]
Solubility (wt %) of alkali lignin [1]: Negligible solubility; also recorded: Trace

CC(=O)O.NCCO [[EOA][OAc], ethanolamine acetate]
IL concentration tolerated by commercial cocktails in saccharification (CTec2+HTec2 (9:1, v/v); CTec2+HTec2 (9:1, v/v), 50 °C, 72 h): about 10 wt % | glucose yield at raised IL concentration in saccharification (CTec2+HTec2 (9:1, v/v); [EOA][OAc] concentration over 10 wt %): decreased glucose yield | thermal decomposition temperature, Td [3]: above 200 °C | yeast growth ([4]; 5 wt % IL concentration): better yeast growth | yeast strain growth ([4]; IL concentrations from 2.5 to 15 wt %, 31 °C, 10 g/L glucose): better growth occurs in a lower IL titer below 10 wt %
